From patent publication US20160310448A1, “Adamantane or Pinene Derivatives for Use in the Treatment of Chlamydiales Infections” (Commissariat a l'Energie Atomique et aux Energies …, priority 2015, published 2016)
“Also recorded” adds a separate entry of the source.

Key:
Type in all cases: cell-based
[1] = system: Chlamydia trachomatis (Ctr) strain L2/434/Bu; assay: microbe, parasite or virus in culture; details: for protection against Ctr progeny infection at 75 μM (in words) / protection against Ctr progeny infection at 25 μM (in words): HeLa229; for protection against Ctr progeny infection at 75 μM (in words): FIG. 7 and Table 1; for inhibition at 25 µM / inhibition at 75 µM: Chlamydia trachomatis, HeLa 229, progeny infection, HeLa229, MOI1, versus solvent-treated cells; for inhibition at 25 µM: read-out: Cellular protection at 25 μM; for inhibition at 75 µM: read-out: Cellular protection at 75 μM; for protection against Ctr progeny infection at 25 μM (in words): Table 1
Description: HeLa229 (ATCC CCL-2.1). Cells were grown in RPMI1640 medium (Glutamax, 10% FBS, w/o HEPES) (Invitrogen).
(§1) Chlamydia trachomatis (Ctr). Laboratory-adapted strain L2/434/Bu (ATCC VR902B) was used in assays. Full biological and genetic information is available for this strain including complete genome sequence and defined proteome. This strain has a relatively low particle to infectivity ratio, perform efficient cell infection and has a higher viability than standard genital tract isolates with faster developmental cycle. Culture conditions have been described in (Wang Y., Kahane S., Cutcliffe L. T., Skilton R. J., Lambden P. R., Clarke I. N. Development of a transformation system for Chlamydia trachomatis: Restoration of glycogen biosynthesis by acquisition of a plasmid shuttle vector. PLoS Pathogen, 2011, 7(9):e1002258. doi: 10.1371/journal.ppat.1002258).
Compound application during Chlamydia trachomatis infection. HeLa229 cells were pretreated with compound #20 and its derivatives in concentrations of 25 μM and 75 μM for 1 hour until Chlamydia trachomatis (MOI1) were added to the cells. Compounds were present during infection. To obtain progeny infection, compound treated cells were lysed 24 h post infection (hpi) and lysate was used to infect fresh HeLa 229 cells.
Infected cells of progeny infection were fixed with 4% Paraformaldehyde 48 hpi. Cells were stained for DAPI and Chlamydia trachomatis were detected by GFP-signal. Images are representative of n=2 independent experiments. Quantification of infected cells by Chlamydia trachomatis was realized from microscopy images with Image J software (FIG. 7) and cellular protection by compounds at 25 μM and 75 μM was then determined (Table 1) by comparison with solvent-treated cells (control) with the following equation: […]

[2] = system: Chlamydia trachomatis (Ctr) strain L2/434/Bu; assay: Chlamydia trachomatis (Ctr) infectivity assay, HSP60 immunoblot of primary and progeny infection in HeLa229 cells
Source text: as §1
Compound application during Ctr infection. HeLa229 cells were pretreated with compound 20 in concentrations of 25, 50 and 75 μM for 30 min until Ctr (MOI1) were added to the cells. Compound 20 was present during infection.
Cells with primary infection were lysed 24 h post infection (hpi). To obtain progeny infection compound treated cells were lysed 48 hpi and lysate was used to infect fresh HeLa229 cells. Progeny infection was lysed 24 hpi and analyzed together with primary infection samples by immunoblot. Chlamydial growth was detected with antibodies against chlamydial HSP60 protein and Actin was used as loading control (FIG. 6).

[3] = system: Simkania negevensis (Sn) strain Z; assay: Sn infectivity assays (primary and progeny infection) in HeLa229 cells
Description: Simkania negevensis (Sn) strain Z (ATCC VR-1471) was prepared as described previously (Mehlitz A, Karunakaran K, Herweg J A, Krohne G, van de Linde S, Rieck E, Sauer M, Rudel T. The chlamydial organism Sn forms ER vacuole contact sites and inhibits ER-stress. Cell Microbiol 2014; 16(8):1224-1243).
Briefly, HeLa229 cells were grown to 50-70% confluence, were inoculated with Sn in RPMI1640 with 5% FBS, for 6 h at 35° C. in a humidified incubator at 5% CO2. Medium was replaced by infection medium (RPMI1640, Glutamax, 5% FBS, w/o HEPES) and growth was allowed for 3 days. Cells were mechanically detached and bacteria were released using ˜2-5 mm glass beads (Carl Roth). Low speed supernatant (600×g, 4° C. and 5 min) was subjected to high-speed centrifugation (20,000×g, 4° C. and 30 min) to pellet bacteria. Bacteria were washed twice with 5 ml SPG (250 mM sucrose, 50 mM sodium phosphate, 5 mM glutamate, pH 7.4), aliquoted and stored at '80° C. in SPG.
40,000 HeLa cells were seeded in 12-well cluster plates, inhibitor-treated and infected as indicated in the respective experiment.
For infectivity assays cells were either fixed and stained at indicated time points (FIGS. 2,4; inclusion formation/primary infection) or bacteria were released via one freeze thaw cycle (−70° C./37° C.) followed by mechanical release through pipetting and transfer to fresh HeLa229 cells (1:25-1:50, progeny/infectivity). Cells were centrifuged for 1 h at 35° C. and medium exchanged to infection medium. Progeny was fixed at day 3 post infection and processed for staining (FIG. 3) or harvested for immunoblotting (FIG. 1). Infectivity assays were imaged on an automated fluorescence microscope Leica DMIR (FIG. 4). Numbers and average sizes of the SCV as well as host cell numbers were determined via GroEL and DAPI staining and images were analysed and quantified using FIJI (ImageJ) and Excel (Microsoft).
In this progeny assay, bacteria are first grown in Hela299 cells treated with inhibitors (compound 20 at a concentration of 50 and 75 μM) and the infectious particles from this primary infection are applied to fresh cells in the absence of inhibitor to measure the bacterial load (GroEL immunoblot) and inclusion formation (immunofluorescence microscopy).

Compound	protection against Ctr progeny infection at 75 μM (in words) [1]	inhibition at 25 µM [1] [%]	inhibition at 75 µM [1] [%]	protection against Ctr progeny infection at 25 μM (in words) [1]	effect on Ctr progeny infection at 50 μM ([2]; 50 μM, HSP60 immunoblot)	effect on Ctr progeny infection at 75 μM ([2]; 75 μM, HSP60 immunoblot)	effect on chlamydial development (primary Ctr infection) ([2]; 25, 50 and 75 μM, HSP60 immunoblot 24 hpi)	effect on Sn progeny infection ([3]; HeLa cells, 50 and 75 μM, GroEL immunoblot, relative inclusion number)	effect on Sn primary infection ([3]; HeLa cells, 50 and 75 μM, relative inclusion size, fluorescence microscopy)	concentration of maximal inhibition of Sn replication ([3]; HeLa cells, FIGS. 1, 2, 3 and 4) [µM]	subcellular structure of Sn inclusions by transmission electron microscopy ([3]; infected HeLa cells, versus DMSO-treated control)
C[C@@H]1[C@@H](NCc2ccc(I)cc2)C[C@H]2C[C@@H]1C2(C)C [VP390, (1S,2S,3S,5R)-N-(4-iodobenzyl)-2,6,6-trimethylbicyclo[3.1.1]heptan-3-amine]	full protection	91.8	100	–	–	–	–	–	–	–	–
O=C(CC12CC3CC(CC(C3)C1)C2)N/N=C/c1ccc([N+](=O)[O-])o1 [m9, 2-((3R,5R,7R)-adamantan-1-yl)-N′-((E)-(5-nitrofuran-2-yl)methylene)acetohydrazide]	full protection	100	100	full protection	–	–	–	–	–	–	–
COc1ccc(Br)cc1CN[C@H]1C[C@H]2C[C@@H]([C@@H]1C)C2(C)C [VP332, (1S,2S,3S,5R)-N-(5-bromo-2-methoxybenzyl)-2,6,6-trimethylbicyclo[3.1.1]heptan-3-amine]	full protection	100	100	full protection	–	–	–	–	–	–	–
COc1ccc(Br)cc1CNC12CC3CC(C)(CC(C)(C3)C1)C2 [RN-2-103, (1R,3R,5S,7R)-N-(5-bromo-2-methoxybenzyl)-3,5-dimethyladamantan-1-amine]	full protection	66.9	100	–	–	–	–	–	–	–	–
COc1ccc(I)cc1CN[C@H]1C[C@H]2C[C@@H]([C@@H]1C)C2(C)C [VP386, (1S,2S,3S,5R)-N-(5-iodo-2-methoxybenzyl)-2,6,6-trimethylbicyclo[3.1.1]heptan-3-amine]	full protection	100	100	full protection	–	–	–	–	–	–	–
O=C(Nc1ccc(S(=O)(=O)Nc2nccs2)cc1)C12CC3CC(CC(C3)C1)C2 [m3, (3R,5R,7R)-N-(4-(N-(thiazol-2-yl)sulfamoyl)phenyl)adamantane-1-carboxamide]	–	46.9	87.8	–	–	–	–	–	–	–	–
O=C(N/N=C/c1cccc([N+](=O)[O-])c1)NC12CC3CC(CC(C3)C1)C2 [m4, N-((3S,5S,7S)-adamantan-1-yl)-2-((E)-3-nitrobenzylidene)hydrazine-1-carboxamide]	–	22.8	81.6	–	–	–	–	–	–	–	–
COc1ccc(Br)cc1CNC12CC3CC(CC(C3)C1)C2 [Compound 20, (3S,5S,7S)-N-(5-bromo-2-methoxybenzyl)adamantan-1-amine]	–	19.9	75.7	–	strongly reduced amounts of Ctr in the progeny	totally blocked progeny infection	slight inhibitory effect	inhibitor effect; also recorded: inhibits	inhibitor effect; also recorded: inhibits	75	dramatically smaller and less sub-vacuoles and just few bacteria; also recorded: the number of Sn inclusions is reduced and the vacuole size is much reduced
